Assay results from a melting point compilation (Tetko et al.; mined from patent text by program, amines drawn as free bases though some values may be those of a salt).

melting point	Compound
155 to 157 °C	COc1ccc(-c2ccc(Cl)cc2)cc1COc1cccc2cc(NS(=O)(=O)C(F)(F)F)ccc12
> 260 °C	CC(C)(C)c1cc(N2CCN(C(=O)c3ccc(N)cc3)C2=O)cc(C(C)(C)C)c1O
116 °C	NC(=O)c1ccc(F)c2c1OCC(N(CCCCc1c[nH]c3ccc(F)cc13)CC1CC1)C2 (centres undefined)
114 to 116 °C	CCc1nn(C2CCCC2)c2nc(COS(C)(=O)=O)nc(OS(C)(=O)=O)c12
235 to 237 °C	COC(=O)c1ccccc1-n1c(CCl)nc2ccc(Br)cc2c1=O
160 to 162 °C	CC1(C)Cc2cccc(S(N)(=O)=O)c2O1
181 to 185 °C	C(=Cc1nc2ccccc2s1)c1ccc2cc(N(c3ccccc3)c3ccccc3)ccc2c1
148 to 150 °C	O=C(O)CCC(=NO)c1ccc2c3c(oc2c1)CCCC3
168 to 170 °C	COc1cc(C(C)=NO)ccc1OCCCN1CCC(c2noc3cc(F)ccc23)CC1
85 to 87 °C	CCCCCCCCNC(=O)ON=C(C1=CC(=O)C(C)(C2CCCCC2)O1)c1ccccc1 (centres undefined)
52.5 to 55.5 °C	Cc1cc(Oc2ccsc2C(F)(F)F)nc(-c2ccc(C(F)(F)F)cc2)c1
156 to 158 °C	CCC(O)c1cc2cc(OCC(=O)O)c(Cl)c(Cl)c2s1 (centres undefined)
124 to 127 °C	CS(=O)(=O)Nc1ccc(Sc2ccc([N+](=O)[O-])cc2)cc1Oc1ccc(F)cc1F
165 to 166 °C	CC(C)(C)OC(=O)N1CCN(C(=O)Oc2ccc(Oc3ccc(C(F)(F)F)cn3)cc2)CC1
122 to 129 °C	CCCCCCCC(O)CNCCCCCCNCC(O)CCCCCCC (centres undefined)
46 °C	CCOC(=O)C(C)c1ccc2nc(-c3ccccc3)oc2c1 (centres undefined)
164 to 167 °C	COc1cccc2c1Cc1ccccc1C2(CCO)CCO
169 to 171 °C	Cc1cc(-c2cc([N+](=O)[O-])ccc2F)cc(C)n1
195 to 200 °C	CCCN(Cc1ccc(-c2ccccc2-c2nnn[nH]2)cc1)c1ccncc1C(=O)O
136 to 137 °C	O=C(NCCO)c1cccc(-c2cccc3cn(Cc4cccc(C(F)(F)F)c4)nc23)c1
189 to 190 °C	O=C(Nc1cccnn1)N1CCN(c2ccnc(-c3ccc(F)cc3F)c2)CC1
78 to 79 °C	CCCCCCCOc1ccc(CCC(CO)(CCO)NC(=O)c2cc([N+](=O)[O-])cc([N+](=O)[O-])c2)cc1 (single isomer, unassigned; (+))
111 to 113 °C	N#Cc1ccc(-c2ccc(NCCCC3CCCCO3)cc2)cc1 (centres undefined)
175 to 176 °C	CS(=O)(=O)c1ccc(-c2cc(=O)n(CC3CCCCC3)nc2-c2ccc(F)cc2)cc1

melting point	Compound
260 to 262 °C	Cc1nc(NC(=O)c2ccn(-c3ccccc3)c(=O)c2)sc1C(=O)NCc1ccccc1
205 °C	CCCCc1nc(Cl)c(CC(=O)O)c(Cc2ccc(C(=O)O)cc2)n1
78.6 to 79.8 °C	NCc1cc2c(Oc3ccc(Cl)cc3)cncc2s1
93 to 94 °C	CCC1CC2C3CCc4cc(OC)ccc4C3CCC2(C)C1=O (centres undefined)
146 to 149 °C	OCC1CCC(CBr)CC1 (centres undefined)
164 °C	Nn1c(=O)c(-c2cccs2)nc2ccccc21
119 to 121 °C	O=C1COC[C@@H](c2cccc(F)c2)N1
211 to 212 °C	CN(c1cccc2cc(C(=O)NCC3(SCc4ccccc4)CCC4(CC3)OCCO4)[nH]c12)S(=O)(=O)c1cccs1
186 °C	CCN(CC)CCCN1C(=O)NC(Cc2c[nH]c3ccc(Cl)cc23)C1=O (centres undefined)
163 to 164 °C	COc1ccc(N2C(=O)C3=C(SCCS3)C2CC(=O)N2CCCCC2)cc1 (centres undefined)
123 °C	O=[N+]([O-])c1cccc2c(Cl)c(Cl)cnc12
> 250 °C	CC(C)(C)C(=O)Nc1nc(O)c2cc(C#Cc3ccc(C(=O)O)cc3)cnc2n1
146 to 147 °C	COc1cc(C=CC(=O)CC(C)=O)ccc1O
153 to 154 °C	COc1ccc2cc(Nc3ccc(O)cc3)ccc2c1
113 °C	COc1nc(C)nc(NC(=O)NS(=O)(=O)c2cc(OC(F)F)ccc2OC(F)F)n1
284 to 285 °C	O=C(O)c1ccc(-c2ccc(-c3ccc(C(F)(F)F)cc3)s2)cc1
152 to 154 °C	COC(=O)C(CCSC)NC(=O)c1ccc(CS(=O)(=O)c2cccnc2)cc1-c1ccccc1 (centres undefined)
25.8 to 27 °C	O=c1oc2ccccc2s1
83 to 86 °C	CCN(C(=O)C1CC1)c1cnn2ccccc12
190 to 196 °C	CC1Cc2cc3c(cc2C(c2ccc([N+](=O)[O-])cc2)=NN1c1ncon1)OCO3 (centres undefined)
75 to 77 °C	CN(CCc1ccc(Nc2ncc3c(n2)-c2ccccc2C(c2cccc(Br)c2)C3)cc1)CCc1ccccn1 (centres undefined)
115 to 116 °C	CCC(O)(CC)c1cccc(COc2ccc3c(-c4ccoc4)cc(C#N)cc3c2)n1
162 to 163 °C	O=C(NCc1ccccc1)c1csc(-n2ccc(OCc3ccccc3)cc2=O)c1
236 to 242 °C	CCn1c(C)nc2cc(Sc3cccc4cnccc34)c([N+](=O)[O-])cc21

melting point	Compound
130 to 131 °C	O=C1C(CN2CCN(CCO)CC2)CCN1c1ccc(Cl)cc1 (centres undefined)
320 to 321 °C	COc1ccc2c(c1)C(=NO)c1c-2c(O)nc2ccccc12
91 to 93 °C	O=C(CCC(O)c1ccccc1)NC1CCCCC1 (centres undefined)
207 to 210 °C	N#Cc1ccc2c(c1)Sc1ccc(Cl)cc1C=C2
360 °C	CN1c2ccccc2S(=O)(=O)c2cc(C=Cc3ccc(-c4ccc(C=Cc5ccc6c(c5)S(=O)(=O)c5ccccc5N6C)cc4)cc3)ccc21
135 to 136 °C	Nc1ccc(Oc2ccccc2Oc2ccc(N)cc2)cc1
211 °C	Cc1c(C(=O)O)nn(-c2ccc(Cl)cc2Cl)c1-c1ccc(Cl)cc1
124 to 125 °C	O=S(=O)(Oc1cccc(OCCC(c2ccccc2)(c2ccccc2)c2ccccc2)c1)c1ccccc1
131 to 134 °C	CS(=O)(=O)NCCC(c1cc(F)ccc1F)S(=O)(=O)c1ccc(Cl)cc1 (centres undefined)
225 to 228 °C	CCOC(=O)c1ncc2[nH]c3ccc(Cl)cc3c2c1C
149 to 152 °C	Cc1cc([N+](=O)[O-])ccc1N=C1C2CC3CC(C2)CC(C3)N1C1CCCC1
152 to 153 °C	CCc1ccc(Oc2ccc([C@@H]3CCCN4CCS(=O)(=O)N=C34)cc2)cc1
56 to 59 °C	C=Cc1ccc(CN2CCNCCNCC2)cc1
61 to 62 °C	c1ccc(Cc2nc(COc3ccc(CCCn4ccnc4)cc3)co2)cc1
360 °C	CCc1c(O)cc(=O)[nH]c1C
183 to 184 °C	CCn1cc(C(=O)NCc2ccc(Cl)cc2)c(=O)c2ccsc21
211 to 213 °C	N#Cc1cc(I)c(I)[nH]1
214 °C	CCc1cn2ccccc2c1S(=O)(=O)c1ccc(O)c(C)c1
198 to 201 °C	N#CCC(=O)Nc1ccccc1S
93 to 95 °C	Cn1c(=O)n(CC(=O)OCCF)c(=O)n(-c2cc(Oc3ncc(C(F)(F)F)cc3Cl)ccc2Br)c1=O
99 to 100 °C	COc1cc(N)c(OC)c(OC)c1OC
40 to 45 °C	COc1ccc(C2=NN(c3ccc(OCCBr)cc3)C(=O)[C@@H]3CC=CC[C@H]23)cc1OC
270 to 271 °C	CSC1=NC(=O)C(=Cc2cccc(-c3cc(F)c(O)c(C45CC6CC(CC(C6)C4)C5)c3)c2)S1
191 °C	O=C(c1cc(=O)c2c(OCCOc3ccccc3)cccc2o1)N1CCN(CCO)CC1

melting point	Compound
> 270 °C	O=C(O)c1cc2nc3n(c2cc1Cl)CCC3
126 to 130 °C	O=C(c1ccc(CBr)cc1)c1c(Cl)cccc1Cl
136 to 137 °C	CC(C)(C)c1cc(CCc2ccccc2NC(=O)NC2CCN(Cc3ccccc3F)CC2)cc(C(C)(C)C)c1O
53 to 58 °C	CNC(=O)C(C(F)F)C(C)(C)C=NO (centres undefined)
284 to 286 °C	O=C(O)CCc1cc(F)c2ncc(C(=O)NCc3ccc(Cl)cc3)c(O)c2c1
98 to 99 °C	CCOC(=O)C=C1NC(C)=C(C(=O)OCC)C(c2ccccc2C(F)(F)F)C1C(=O)OCC (centres undefined)
93 to 105 °C	CCCNC(=O)C(CC)Cc1ccc2c(c1)c(Cc1ccc(C(=O)NS(=O)(=O)c3ccccc3C)cc1OC)cn2CCC (centres undefined)
135 to 138 °C	Cn1cc(-c2cccc(C(F)(F)F)c2)c(=O)c(-c2ccccc2C(F)(F)F)c1
101 to 102 °C	CC(=O)NC(=O)C(Cl)c1ccccc1 (centres undefined)
360 to 361 °C	O=c1c2ccc(Cl)cc2[nH]c2c(O)nn(-c3ccc(Cl)cc3Cl)c(=O)c12
203 to 205 °C	CN1CN(C(=O)c2c(F)cccc2F)C(=O)N(c2ccc(S(=O)(=O)C(F)F)cc2F)C1
238 to 239 °C	CNC(=O)CC1(CC(=O)O)c2ccccc2C(=O)c2ccccc21
> 320 °C	O=c1ccc2cc(-n3cnnc3)cc(C(F)(F)F)c2[nH]1
172 to 175 °C	COc1ccc(C(=O)O)cc1NC(=O)C(CSC(C)=O)Cc1ccccc1 (centres undefined)
205 °C	COc1ccccc1NC(=O)Nc1nc(Cl)nc(N(CCC(=O)O)Cc2cccc(C)c2)n1
106 °C	N#CC=Cc1ccc(Br)cc1
173 to 174 °C	O=C(c1ccccc1)c1cnn2c1NCCC2
237 °C	CC(=O)Nc1cc(N)c(Cl)cc1NC(C)=O
59 to 60 °C	CC(C)(O)C(CS(=O)(=O)c1ccccc1)C(F)(F)F (centres undefined)
148 to 150 °C	CCCOc1ccc(-c2nc3n(c2-c2ccncc2)CCC3)cc1
130 to 134 °C	O=C(NCCCc1ccncc1)N(CC=Cc1ccccc1)CCC12CC3CC(CC(C3)C1)C2
72 to 74 °C	OCc1ccccc1SCCN1CCN(c2ccccc2)CC1
199 to 200 °C	COc1ccc2c(c1)C(=O)CC1C2C(OC(C)=O)CC2(C)C(OC(C)=O)CCC12 (centres undefined)

Compound	melting point
Clc1cccc2c(CCN3CCCCC3)c(-c3ccccc3)[nH]c12	178 to 179 °C
O=C(O)CCC(=O)Oc1ccc(N(CCCl)CCCl)cc1	98 to 100 °C
CC(C)n1cc(C(=O)O)c2ccc(Cl)cc21	206 to 208 °C
CC1(C)N=C(c2ccccc2Cl)c2cc([N+](=O)[O-])ccc2-n2cnnc21	262 °C
